Measurements as given in patent US20220024921A1, “1,3,4-OXADIAZOLONE COMPOUND AND PHARMACEUTICAL” (NIPPON SHINYAKU CO., LTD., priority 2018, published 2022).
Counter-ions that a name gives are not always drawn.

Key:
[1] = molecular target: PIM1 transgenic cells (Ba/F3) (Homo sapiens, UniProt P11309); assay: Proliferation inhibitory effect on PIM1 transgenic cells; type: cell-based, mouse; conditions: proliferation inhibition, 72 hours, Cell Counting Kit-8, read-out: PIM1 IC50
In short: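 Mouse Ba/F3 pro-B cells were retrovirally transduced with human PIM1 so that their proliferation depends on PIM1. Cells were treated with compound at 1–10000 nM final for 72 h, then read by CCK-8 (OD450−OD650). Inhibition was set against DMSO (0%) and no-cell blank (100%), and IC50 was obtained by two-parameter logistic regression.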

[2] = molecular target: T1, PIM1 serine/threonine kinase (Homo sapiens, UniProt P11309); assay: PIM1 serine/threonine kinase inhibitory effect; type: biochemical; conditions: PIM1 serine/threonine kinase activity; ATP 40 μM; 30° C., 30 minutes
T1 construct: purchased Carna Bioscience, Inc
In short: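 Compounds were tested in duplicate from 0.01 to 10000 nM final against PIM1 kinase (0.15 μg/ml). The reaction ran for 30 minutes at 30° C with 40 μM ATP and 0.5 μM biotin-tagged substrate at pH 7.0. Phosphorylation was read by time-resolved FRET (OD665/OD620) after 1 h; IC50 by non-linear fit.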

PIM1 transgenic cells (Ba/F3), sequence (P11309 whole entry, stated change not applied): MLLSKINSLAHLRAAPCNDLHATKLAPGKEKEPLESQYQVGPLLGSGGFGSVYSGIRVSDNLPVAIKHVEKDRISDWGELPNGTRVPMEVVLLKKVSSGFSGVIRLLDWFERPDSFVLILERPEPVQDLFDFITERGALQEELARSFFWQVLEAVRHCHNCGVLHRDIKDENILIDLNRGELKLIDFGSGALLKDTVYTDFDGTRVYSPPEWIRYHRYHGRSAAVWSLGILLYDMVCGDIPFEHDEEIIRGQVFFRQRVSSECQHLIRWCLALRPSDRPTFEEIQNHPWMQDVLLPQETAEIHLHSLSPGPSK
T1 sequence (P11309 whole entry): as the sequence (P11309 whole entry, stated change not applied) above

Row | SMILES | GI50 [1] [nM] | IC50 [2] [nM]
1 | C[C@@H]1CNCC[C@@H]1[C@H](C)N1CCC(=O)c2c(F)cc(-c3n[nH]c(=O)o3)cc21 [Example 245, 5-fluoro-1-{(1S)-1-[(3S,4S)-3-methylpiperidin-4-yl]ethyl}-7-(5-oxo-4,5-dihydro-1,3,4-oxadiazol-2-yl)-2,3-dihydroquinolin-4(1H)-one hydrochloride] | 3200 | 4.2
2 | CC[C@H](Nc1cc(-c2n[nH]c(=O)o2)cc(F)c1Cl)C1CCNCC1 [Example 139, 5-(4-chloro-3-fluoro-5-{[(1S)-1-(piperidin-4-yl)propyl]amino}phenyl)-1,3,4-oxadiazol-2(3H)-one hydrochloride] | 80 | 2.6
3 | NCCC1CCCN(c2cc(-c3n[nH]c(=O)o3)ccc2C(F)(F)F)C1 (stereo not shown) [Example 11, 5-{3-[3-(2-aminoethyl)piperidin-1-yl]-4-(trifluoromethyl)phenyl}-1,3,4-oxadiazol-2(3H)-one hydrochloride] | 330 | 13
4 | C[C@H](Nc1cc(-c2n[nH]c(=O)o2)c(Cl)cc1Cl)C1CCNCC1 [Example 96, 5-(2,4-dichloro-5-{[(1S)-1-(piperidin-4-yl)ethyl]amino}phenyl)-1,3,4-oxadiazol-2(3H)-one hydrochloride] | 380 | 6.2
5 | CN[C@H]1CC[C@H](CN(C)c2cc(-c3n[nH]c(=O)o3)ccc2C(F)(F)F)CC1 [Example 132, 5-[3-(methyl{[(1r,4r)-4-(methylamino)cyclohexyl]methyl}amino)-4-(trifluoromethyl)phenyl]-1,3,4-oxadiazol-2(3H)-one hydrochloride] | 440 | 17
6 | N[C@H]1CC[C@H](COc2cc(-c3n[nH]c(=O)o3)ccc2Br)CC1 [Example 238, 5-(3-{[(1r,4r)-4-aminocyclohexyl]methoxy}-4-bromophenyl)-1,3,4-oxadiazol-2(3H)-one] | 87 | 2.5
7 | N[C@@H]1CCCN(CCNc2cc(-c3n[nH]c(=O)o3)ccc2C(F)(F)F)C1 [Example 72, 5-[3-({2-[(3R)-3-aminopiperidin-1-yl]ethyl}amino)-4-(trifluoromethyl)phenyl]-1,3,4-oxadiazol-2(3H)-one dihydrochloride] | 920 | 8.4
8 | C[C@H](Nc1cc(-c2n[nH]c(=O)o2)ccc1Br)[C@H]1CC[C@H](N)CC1 [Example 154, 5-[3-({(1S)-1-[(1r,4S)-4-aminocyclohexyl]ethyl}amino)-4-bromophenyl]-1,3,4-oxadiazol-2(3H)-one hydrochloride] | 35 | 2.4
9 | CC[C@H](Nc1cc(-c2n[nH]c(=O)o2)cc(F)c1C(F)(F)F)[C@H]1CC[C@H](N)CC1 [Example 198, 5-[3-({(1S)-1-[(1r,4S)-4-aminocyclohexyl]propyl}amino)-5-fluoro-4-(trifluoromethyl)phenyl]-1,3,4-oxadiazol-2(3H)-one] | 100 | 3.5
10 | C[C@@H](C1CCNCC1)N1CCCOc2c(F)cc(-c3n[nH]c(=O)o3)cc21 [Example 254, 5-{9-fluoro-5-[(1S)-1-(piperidin-4-yl)ethyl]-2,3,4,5-tetrahydro-1,5-benzoxazepin-7-yl}-1,3,4-oxadiazol-2(3H)-one hydrochloride] | 680 | 15
11 | CN[C@H]1CC[C@H]([C@H](C)Nc2cc(-c3n[nH]c(=O)o3)cc(F)c2C(F)(F)F)CC1 [Example 190, 5-[3-fluoro-5-({(1S)-1-[(1r,4S)-4-(methylamino)cyclohexyl]ethyl}amino)-4-(trifluoromethyl)phenyl]-1,3,4-oxadiazol-2(3H)-one hydrochloride] | 41 | 1.9
12 | NCCCCCNc1cc(-c2n[nH]c(=O)o2)ccc1C(F)(F)F [Example 3, 5-{3-[(5-aminopentyl)amino]-4-(trifluoromethyl)phenyl}-1,3,4-oxadiazol-2(3H)-one hydrochloride] | 7900 | 11
13 | C[C@H](Nc1cc(-c2n[nH]c(=O)o2)c(F)cc1Cl)C1CCNCC1 [Example 95, 5-(4-chloro-2-fluoro-5-{[(1S)-1-(piperidin-4-yl)ethyl]amino}phenyl)-1,3,4-oxadiazol-2(3H)-one hydrochloride] | 590 | 11
14 | CN[C@H]1CC[C@H]([C@H](C)Nc2cc(-c3n[nH]c(=O)o3)cc(F)c2OC(F)(F)F)CC1 [Example 204, 5-[3-fluoro-5-({(1S)-1-[(1r,4S)-4-(methylamino)cyclohexyl]ethyl}amino)-4-(trifluoromethoxy)phenyl]-1,3,4-oxadiazol-2(3H)-one hydrochloride] | 57 | 3.5
15 | O=c1[nH]nc(-c2ccc(Cl)c(NC[C@@H]3CCNC3)c2)o1 [Example 49, 5-[4-chloro-3-({[(3R)-pyrrolidin-3-yl]methyl}amino)phenyl]-1,3,4-oxadiazol-2(3H)-one hydrochloride] | 7600 | 18
16 | O=c1[nH]nc(-c2cc(NCC3(F)CCNCC3)c3cn[nH]c3c2)o1 [Example 116, 5-(4-{[(4-fluoropiperidin-4-yl)methyl]amino}-1H-indazol-6-yl)-1,3,4-oxadiazol-2(3H)-one hydrochloride] | 4200 | 4.3
17 | CC[C@H]1CNCC[C@H]1[C@H](C)Nc1cc(-c2n[nH]c(=O)o2)cc(F)c1C(F)(F)F [Example 226, 5-[3-({(1S)-1-[(3R,4R)-3-ethylpiperidin-4-yl]ethyl}amino)-5-fluoro-4-(trifluoromethyl)phenyl]-1,3,4-oxadiazol-2(3H)-one] | 83 | 5.4
18 | C[C@@H]1C[C@H]([C@H](C)Nc2cc(-c3n[nH]c(=O)o3)cc(F)c2OC(F)F)CCN1 [Example 216, 5-[4-(difluoromethoxy)-3-fluoro-5-({(1S)-1-[(2R,4R)-2-methylpiperidin-4-yl]ethyl}amino)phenyl]-1,3,4-oxadiazol-2(3H)-one] | 45 | 3.5

More lines, now with the values ahead:

Row | GI50 [1] [nM] | IC50 [2] [nM] | SMILES
19 | 500 | 11 | CC(CCCCN)Nc1cc(-c2n[nH]c(=O)o2)ccc1C(F)(F)F (stereo not shown) [Example 5, 5-{3-[(6-aminohexan-2-yl)amino]-4-(trifluoromethyl)phenyl}-1,3,4-oxadiazol-2(3H)-one hydrochloride]
20 | 100 | 8.5 | C[C@H](Nc1cc(-c2n[nH]c(=O)o2)ccc1C(F)(F)F)[C@@H]1CC[C@H](N)C1 [Example 200, 5-[3-({(1S)-1-[(1R,3S)-3-aminocyclopentyl]ethyl}amino)-4-(trifluoromethyl)phenyl]-1,3,4-oxadiazol-2(3H)-one hydrochloride]
21 | 180 | 5.8 | C[C@H](Nc1cc(-c2n[nH]c(=O)o2)ccc1Cl)C1CCNCC1 [Example 77, 5-(4-chloro-3-{[(1S)-1-(piperidin-4-yl)ethyl]amino}phenyl)-1,3,4-oxadiazol-2(3H)-one dihydrochloride]
22 | 3500 | 29 | O=c1[nH]nc(-c2ccc(C(F)(F)F)c(NC[C@@H]3C[C@H]4CC[C@@H](C3)N4)c2)o1 [Example 135, 5-[3-({[(1R,3s,5S)-8-azabicyclo[3.2.1]octan-3-yl]methyl}amino)-4-(trifluoromethyl)phenyl]-1,3,4-oxadiazol-2(3H)-one hydrochloride]
23 | 40 | 3.1 | C[C@H](Nc1cc(-c2n[nH]c(=O)o2)ccc1C(F)(F)F)[C@H]1C[C@@H](N)C1(C)C [Example 153, 5-[3-({(1S)-1-[(1S,3R)-3-amino-2,2-dimethylcyclobutyl]ethyl}amino)-4-(trifluoromethyl)phenyl]-1,3,4-oxadiazol-2(3H)-one hydrochloride]
24 | 1700 | 4.2 | CC1(CCNc2cc(-c3n[nH]c(=O)o3)ccc2C(F)(F)F)CCNCC1 [Example 70, 5-[3-{[2-(4-methylpiperidin-4-yl)ethyl]amino}-4-(trifluoromethyl)phenyl]-1,3,4-oxadiazol-2(3H)-one hydrochloride]
25 | 64 | 2.9 | C[C@H](Nc1cc(-c2n[nH]c(=O)o2)ccc1C(F)(F)F)C1(C)CCNCC1 [Example 144, 5-[3-{[(1S)-1-(4-methylpiperidin-4-yl)ethyl]amino}-4-(trifluoromethyl)phenyl]-1,3,4-oxadiazol-2(3H)-one hydrochloride]
26 | 57 | 4.1 | O=c1[nH]nc(-c2ccc(C(F)(F)F)c(N[C@@H](C(F)F)C3(F)CCNCC3)c2)o1 [Example 140, 5-[3-{[(1R)-2,2-difluoro-1-(4-fluoropiperidin-4-yl)ethyl]amino}-4-(trifluoromethyl)phenyl]-1,3,4-oxadiazol-2(3H)-one hydrochloride]
27 | 200 | 8 | O=c1[nH]nc(-c2ccc(C(F)(F)F)c(NCC3C4CCC3CNC4)c2)o1 (stereo not shown) [Example 133, 5-[3-{[(3-azabicyclo[3.2.1]octan-8-yl)methyl]amino}-4-(trifluoromethyl)phenyl]-1,3,4-oxadiazol-2(3H)-one hydrochloride]
28 | 32 | 1.7 | C[C@H](Nc1cc(-c2n[nH]c(=O)o2)cc(F)c1C(F)(F)F)C1(C)CCNCC1 [Example 206, 5-[3-fluoro-5-{[(1S)-1-(4-methylpiperidin-4-yl)ethyl]amino}-4-(trifluoromethyl)phenyl]-1,3,4-oxadiazol-2(3H)-one]
29 | 1100 | 18 | O=c1[nH]nc(-c2ccc(C(F)(F)F)c(C#CC3CCNCC3)c2)o1 [Example 29, 5-{3-[(piperidin-4-yl)ethynyl]-4-(trifluoromethyl)phenyl}-1,3,4-oxadiazol-2(3H)-one hydrochloride]
